PubChem BioAssay AID2060483 (Molecular Pharmacology Branch, DTP, NCI, 2025)
“And” between values parts separate entries of the source, which are not always exact repeats. Identical values can stand only once.

Tested on: K24384-001-R-PDC complex spheroids, viability
Assay: Anticancer human tumor K24384-001-R-PDC patient-derived pancreatic adenocarcinoma cell line growth inhibition [GQUAD]
Details: for viability, T/C: stronger effect = lower value; active means viability on the fitted dose curve at most 10% of control; inactive means the rest
Excerpt: DNA G-quadruplex Stabilizer Agents in Combinations in Complex Spheroids
A high-throughput screen of multi-cell type tumor spheroids was designed to identify active combinations of DNA G-quadruplex stabilizer agents and targeted small molecules. Complex spheroids include a stromal component modeled by human endothelial cells (HUVEC) and fibroblasts modeled by human mesenchymal stem cells (MSCs). The concentration ranges selected for each drug and investigational agent were based upon clinically achievable concentrations if the clinical Cmax of the agent was known.
Compounds. The drugs and investigational agents: pidnarulex (CX-5461; NSC782164), APTO-253 (NSC789042), BRACO-19 (NSC847499), peposertib (NSC802822), ceralasertib (NSC780249), elimusertib (NSC800525), camonsertib (NSC841442), AZD-1390 (NSC803789), olaparib (NSC753686), talazoparib (NSC767125), ART-558 (NSC835418), sotorasib (NSC818433), MRTX-1133 (NSC836407), SN-38 (NSC673596), topotecan (NSC609699), etoposide (NSC141540), doxorubicin (NSC123127), gemcitabine (NSC613327), 5-fluorouracil (NSC19893), paclitaxel (NSC125973), vemurafenib (NSC761431), panobinostat (NSC761190), R-306465 (JNJ-16241199; NSC773264), adavosertib (NSC754352), TP-3654 (NSC805149), carboplatin (NSC241240), KSQ-4279 (NSC840948), and staurosporine (NSC755774) were obtained from the National Cancer Institute (NCI) Developmental Therapeutics Program Chemical Repository (34). The FDA-approved anticancer drug set is available from the NCI Developmental Therapeutics Program. […] The stock solutions were prepared in dimethyl sulfoxide (DMSO, Sigma-Aldrich, St. Louis, MO, cat. D2650) at 800-fold the tested concentration and stored at -70 degrees C prior to their use. All drugs and investigational agents were tested over a range starting from a high concentration at or near the clinical Cmax and decreasing in half-log increments. If the clinical Cmax for an agent had not been determined, the highest concentration tested was 10 microM.
2.3 Cell Culture. All cells were maintained in an incubator at 37 degrees C and 5% CO2 with 95% humidity. The PDC lines were cultured according to standard operating procedures established by the NCI PDMR. All PDCs were thawed and cultured in Matrigel-coated flasks prepared with a working solution of 1X Ham's F-12 nutrient mix, without supplementation (Invitrogen, cat. 11765054), 100 U/mL penicillin-streptomycin (Invitrogen, cat. 15140122), and 2.5% Matrigel (Corning Inc., cat. 354248) for the first three passages. The 857933-349-R-J2-PDC line was cultured in 6C/Colon 1B media, which includes advanced DMEM/F-12 (Thermo Fisher Scientific, cat. 12634028), 10 mM HEPES (Thermo Fisher Scientific, cat. 15630080), 1X GlutaMAX supplement (Thermo Fisher Scientific, cat. 35050061), 0.1 mg/mL primocin (InvivoGen, cat. ant-pm-2), 10% defined fetal bovine serum, heat inactivated (HyClone Laboratories Inc., cat. SH30070.03HI), 50% L-WRN conditioned media (ATCC, cat. CRL-3276), 1.25 mM N-Acetyl-L-cysteine (Sigma-Aldrich, cat. A9165), 10 mM nicotinamide (Sigma-Aldrich, cat. N0636), 1X B-27 supplement (Thermo Fisher Scientific, cat. 17504044), 1X N-2 supplement (Thermo Fisher Scientific, cat. 17502048), 10 microM Y-27632 dihydrochloride (Tocris Bioscience, cat. 1254), and 50 ng/mL human EGF recombinant protein (Thermo Fisher Scientific, cat. PHG0311). The 485176-168-R4-J1-PDC line was cultured in Panc media, which includes all 6C/Colon 1B media components plus 100 ng/mL human FGF-10 (Thermo Fisher Scientific, cat. 100-26), 500 nM SB-431542 (Selleckchem, cat. S1067), and gastrin (Tocris, cat. 3006).
[…]
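Further: spheroids exposed to compounds for seven days.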

COc1cc(C2c3cc4c(cc3C(OC3OC5COC(C)OC5C(O)C3O)C3COC(=O)C23)OCO4)cc(OC)c1O (stereo unspecified)
964 nM and 1320 nM and 884 nM: IC50 (curve of compound)
inactive: viability, T/C (compound 0.0316 µM) 103% and 98.4% and 102% | viability, T/C (compound 0.1 µM) 98% (2×) and 98.4% | viability, T/C (compound 0.316 µM) 75.9% and 85.9% and 71.3% | viability, T/C (compound 1 µM) 48.9% and 52.9% and 48.6% | viability, T/C (compound 3.16 µM) 37.1% and 41.1% and 35.2% | viability, T/C (compound 10 µM) 30.8% and 35.4% and 31.2%

CC1COCCN1c1cc(-c2ccnn2C)c2ccnc(-c3ccn[nH]3)c2n1 (stereo unspecified)
inactive: viability, T/C (compound 0.0316 µM) 85.2% and 75.3% and 76.9% | viability, T/C (compound 0.1 µM) 49.8% and 45% and 54.3% | viability, T/C (compound 0.316 µM) 41.3% and 28.3% and 40.7% | viability, T/C (compound 1 µM) 37.1% and 26.5% and 29.7% | viability, T/C (compound 3.16 µM) 38.4% and 30.4% and 33.3% | viability, T/C (compound 10 µM) 31.8% and 32.7% and 33.8%
109 nM and 82.7 nM and 141 nM: IC50 (curve of compound)

CCc1c2c(nc3ccc(O)cc13)-c1cc3c(c(=O)n1C2)COC(=O)[C@]3(O)CC + Cc1cnc(CNC(=O)c2c(=O)c3ccc(N4CCCN(C)CC4)nc3n3c2sc2ccccc23)cn1
inactive: viability, T/C (second compound 0.0316 µM, first compound 0.000999 µM) 73.2% | viability, T/C (second compound 0.0316 µM, first compound 0.00316 µM) 60.8% | viability, T/C (second compound 0.0316 µM, first compound 0.00999 µM) 53.2% | viability, T/C (second compound 0.0316 µM, first compound 0.0316 µM) 29.8% | viability, T/C (second compound 0.0316 µM, first compound 0.0999 µM) 31.9% | viability, T/C (second compound 0.0316 µM, first compound 0.316 µM) 18% | viability, T/C (second compound 0.1 µM, first compound 0.000999 µM) 50% | viability, T/C (second compound 0.1 µM, first compound 0.00316 µM) 64.9% | viability, T/C (second compound 0.1 µM, first compound 0.00999 µM) 45.7% | viability, T/C (second compound 0.1 µM, first compound 0.0316 µM) 36.7% | viability, T/C (second compound 0.1 µM, first compound 0.0999 µM) 29.3% | viability, T/C (second compound 0.1 µM, first compound 0.316 µM) 16.1% | viability, T/C (second compound 0.316 µM, first compound 0.000999 µM) 41.4% | viability, T/C (second compound 0.316 µM, first compound 0.00316 µM) 58.4% | viability, T/C (second compound 0.316 µM, first compound 0.00999 µM) 38.2% | viability, T/C (second compound 0.316 µM, first compound 0.0316 µM) 34.8% | viability, T/C (second compound 0.316 µM, first compound 0.0999 µM) 19.9% | viability, T/C (second compound 0.316 µM, first compound 0.316 µM) 14% | viability, T/C (second compound 1 µM, first compound 0.000999 µM) 38.8% | viability, T/C (second compound 1 µM, first compound 0.00316 µM) 41.4% | viability, T/C (second compound 1 µM, first compound 0.00999 µM) 31.3% | viability, T/C (second compound 1 µM, first compound 0.0316 µM) 23.8% | viability, T/C (second compound 1 µM, first compound 0.0999 µM) 18.4% | viability, T/C (second compound 3.16 µM, first compound 0.000999 µM) 37.4% | viability, T/C (second compound 3.16 µM, first compound 0.00316 µM) 43.7% | viability, T/C (second compound 3.16 µM, first compound 0.00999 µM) 28.8% | viability, T/C (second compound 3.16 µM, first compound 0.0316 µM) 20.1% | viability, T/C (second compound 10 µM, first compound 0.000999 µM) 29.2% | viability, T/C (second compound 10 µM, first compound 0.00316 µM) 14.6%
active: viability, T/C (second compound 1 µM, first compound 0.316 µM) 6.84% | viability, T/C (second compound 3.16 µM, first compound 0.0999 µM) 8.56% | viability, T/C (second compound 3.16 µM, first compound 0.316 µM) 0.57% | viability, T/C (second compound 10 µM, first compound 0.00999 µM) 13.3% | viability, T/C (second compound 10 µM, first compound 0.0316 µM) 0.4% | viability, T/C (second compound 10 µM, first compound 0.0999 µM) 0.25% | viability, T/C (second compound 10 µM, first compound 0.316 µM) 0.2%
< 0.999 nM: IC50 (curve of first compound, second compound 0.316 µM) | IC50 (curve of first compound, second compound 1 µM) | IC50 (curve of first compound, second compound 3.16 µM) | IC50 (curve of first compound, second compound 10 µM)
9.23 nM: IC50 (curve of first compound, second compound 0.0316 µM)
8.3 nM: IC50 (curve of first compound, second compound 0.1 µM)
